Values after ≈ are worked out from the molar mass of the structure shown. One block for each compound: values may come before it.
Columns and labels:
Aurora kinase A = target: T1, Aurora kinase A (Homo sapiens, UniProt O14965); test: Inhibition of Aurora A
T1 sequence (O14965 whole entry): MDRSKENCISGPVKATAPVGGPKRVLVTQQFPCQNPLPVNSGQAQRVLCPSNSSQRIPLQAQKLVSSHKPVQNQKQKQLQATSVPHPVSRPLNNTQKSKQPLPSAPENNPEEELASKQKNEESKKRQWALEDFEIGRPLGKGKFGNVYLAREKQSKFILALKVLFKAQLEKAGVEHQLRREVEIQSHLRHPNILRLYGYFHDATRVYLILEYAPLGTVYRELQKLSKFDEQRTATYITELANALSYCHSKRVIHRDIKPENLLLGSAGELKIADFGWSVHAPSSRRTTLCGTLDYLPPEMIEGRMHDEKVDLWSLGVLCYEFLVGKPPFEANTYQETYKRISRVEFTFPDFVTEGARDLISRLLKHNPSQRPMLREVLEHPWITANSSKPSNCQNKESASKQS

[1] = Inhibition of Aurora kinase assessed as reduction histone H3 Ser10 phosphorylation by cell based assay
Aurora kinase B = Aurora kinase B (Homo sapiens, UniProt Q96GD4); test: Inhibition of Aurora B
Chain of Aurora kinase B (Q96GD4 whole entry): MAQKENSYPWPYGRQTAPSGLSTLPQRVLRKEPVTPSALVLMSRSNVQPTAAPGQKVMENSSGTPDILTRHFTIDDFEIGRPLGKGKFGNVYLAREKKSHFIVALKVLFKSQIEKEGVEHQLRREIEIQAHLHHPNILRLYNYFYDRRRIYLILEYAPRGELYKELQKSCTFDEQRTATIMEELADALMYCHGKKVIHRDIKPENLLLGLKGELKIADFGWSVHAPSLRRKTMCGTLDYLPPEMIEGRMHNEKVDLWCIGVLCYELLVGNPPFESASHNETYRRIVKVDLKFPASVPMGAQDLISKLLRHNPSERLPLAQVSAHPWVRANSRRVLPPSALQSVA

[2] = AUC (0-6 hrs) in rat at 10 mg/kg, po; type: ADME, organism-based; parameters: time < 6 hr, dose 10 mg/kg, route oral; settings: plasma
[3] = target: Tyrosine-protein kinase Lck (Homo sapiens, UniProt P06239); test: Inhibition of LCK
Chain of Tyrosine-protein kinase Lck (P06239 whole entry): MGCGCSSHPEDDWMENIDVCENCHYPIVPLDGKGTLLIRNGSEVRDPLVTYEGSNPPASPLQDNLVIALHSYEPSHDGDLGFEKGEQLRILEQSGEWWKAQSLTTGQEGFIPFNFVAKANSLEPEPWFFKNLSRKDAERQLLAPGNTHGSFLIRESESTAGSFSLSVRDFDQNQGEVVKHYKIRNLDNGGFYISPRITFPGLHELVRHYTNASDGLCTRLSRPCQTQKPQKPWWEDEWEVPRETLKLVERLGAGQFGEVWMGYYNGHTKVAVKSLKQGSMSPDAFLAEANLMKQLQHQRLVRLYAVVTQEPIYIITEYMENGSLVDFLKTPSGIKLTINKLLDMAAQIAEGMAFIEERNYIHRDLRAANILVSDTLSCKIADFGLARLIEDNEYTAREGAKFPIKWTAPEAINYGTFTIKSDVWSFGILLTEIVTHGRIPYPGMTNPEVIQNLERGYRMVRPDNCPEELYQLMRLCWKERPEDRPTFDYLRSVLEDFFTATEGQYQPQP

Canis familiaris [4] = test: AUC (0-infinity) in dog at 1 mg/kg, iv; type: ADME, organism-based, Canis lupus familiaris, Plasma; parameters: time infinity, dose 1 mg/kg, route intravenous; settings: in vivo
[5] = target: T2, Serine/threonine-protein kinase Chk1 (Homo sapiens, UniProt O14757); test: Inhibition of CHK1
T2 sequence (O14757 whole entry): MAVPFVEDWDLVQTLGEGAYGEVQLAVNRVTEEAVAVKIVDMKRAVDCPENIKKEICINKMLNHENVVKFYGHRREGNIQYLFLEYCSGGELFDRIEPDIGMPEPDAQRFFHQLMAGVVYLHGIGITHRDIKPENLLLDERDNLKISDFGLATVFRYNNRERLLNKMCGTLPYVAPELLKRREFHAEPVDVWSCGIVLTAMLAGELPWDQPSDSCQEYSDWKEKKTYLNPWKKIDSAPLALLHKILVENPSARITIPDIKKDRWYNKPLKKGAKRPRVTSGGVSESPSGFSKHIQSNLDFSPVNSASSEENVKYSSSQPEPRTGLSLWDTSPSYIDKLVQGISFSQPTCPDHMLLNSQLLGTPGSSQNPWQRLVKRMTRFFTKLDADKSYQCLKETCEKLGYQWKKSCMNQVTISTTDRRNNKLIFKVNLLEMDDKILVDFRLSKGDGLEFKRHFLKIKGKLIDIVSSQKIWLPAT

[6] = AUC (0-infinity) in rat at 30 mg/kg, po; type: ADME, organism-based; parameters: time infinity, dose 30 mg/kg, route oral; settings: plasma
[7] = Half life in rat at 10 mg/kg, iv; type: ADME, organism-based; parameters: dose 10 mg/kg, route intravenous; settings: in vivo
[8] = Half life in mouse at 3 mg/kg, iv; type: ADME, organism-based; parameters: dose 3 mg/kg, route intravenous; settings: in vivo
A2780 [9] = test: Antitumor activity against human A2780 cells assessed as inhibition of cell growth; type: functional, cell-based
[10] = AUC (0-infinity) in mouse at 50 mg/kg, po; type: ADME, organism-based; parameters: time infinity, dose 50 mg/kg, route oral; settings: plasma
[11] = target: Mitogen-activated protein kinase 1 (Homo sapiens, UniProt P28482); test: Inhibition of ERK2
Chain of Mitogen-activated protein kinase 1 (P28482 whole entry): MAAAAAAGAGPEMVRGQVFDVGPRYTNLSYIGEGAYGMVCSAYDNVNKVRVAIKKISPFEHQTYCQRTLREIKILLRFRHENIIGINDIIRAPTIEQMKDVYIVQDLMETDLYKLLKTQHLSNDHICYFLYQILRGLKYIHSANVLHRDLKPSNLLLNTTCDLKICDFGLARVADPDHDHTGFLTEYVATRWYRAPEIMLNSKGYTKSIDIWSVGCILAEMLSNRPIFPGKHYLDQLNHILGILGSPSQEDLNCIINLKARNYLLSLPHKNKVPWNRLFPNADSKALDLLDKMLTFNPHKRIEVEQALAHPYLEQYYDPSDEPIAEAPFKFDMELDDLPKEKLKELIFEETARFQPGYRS

[12] = target: Tyrosine-protein kinase JAK2 (Homo sapiens, UniProt O60674); test: Inhibition of JAK2
Chain of Tyrosine-protein kinase JAK2 (O60674 whole entry): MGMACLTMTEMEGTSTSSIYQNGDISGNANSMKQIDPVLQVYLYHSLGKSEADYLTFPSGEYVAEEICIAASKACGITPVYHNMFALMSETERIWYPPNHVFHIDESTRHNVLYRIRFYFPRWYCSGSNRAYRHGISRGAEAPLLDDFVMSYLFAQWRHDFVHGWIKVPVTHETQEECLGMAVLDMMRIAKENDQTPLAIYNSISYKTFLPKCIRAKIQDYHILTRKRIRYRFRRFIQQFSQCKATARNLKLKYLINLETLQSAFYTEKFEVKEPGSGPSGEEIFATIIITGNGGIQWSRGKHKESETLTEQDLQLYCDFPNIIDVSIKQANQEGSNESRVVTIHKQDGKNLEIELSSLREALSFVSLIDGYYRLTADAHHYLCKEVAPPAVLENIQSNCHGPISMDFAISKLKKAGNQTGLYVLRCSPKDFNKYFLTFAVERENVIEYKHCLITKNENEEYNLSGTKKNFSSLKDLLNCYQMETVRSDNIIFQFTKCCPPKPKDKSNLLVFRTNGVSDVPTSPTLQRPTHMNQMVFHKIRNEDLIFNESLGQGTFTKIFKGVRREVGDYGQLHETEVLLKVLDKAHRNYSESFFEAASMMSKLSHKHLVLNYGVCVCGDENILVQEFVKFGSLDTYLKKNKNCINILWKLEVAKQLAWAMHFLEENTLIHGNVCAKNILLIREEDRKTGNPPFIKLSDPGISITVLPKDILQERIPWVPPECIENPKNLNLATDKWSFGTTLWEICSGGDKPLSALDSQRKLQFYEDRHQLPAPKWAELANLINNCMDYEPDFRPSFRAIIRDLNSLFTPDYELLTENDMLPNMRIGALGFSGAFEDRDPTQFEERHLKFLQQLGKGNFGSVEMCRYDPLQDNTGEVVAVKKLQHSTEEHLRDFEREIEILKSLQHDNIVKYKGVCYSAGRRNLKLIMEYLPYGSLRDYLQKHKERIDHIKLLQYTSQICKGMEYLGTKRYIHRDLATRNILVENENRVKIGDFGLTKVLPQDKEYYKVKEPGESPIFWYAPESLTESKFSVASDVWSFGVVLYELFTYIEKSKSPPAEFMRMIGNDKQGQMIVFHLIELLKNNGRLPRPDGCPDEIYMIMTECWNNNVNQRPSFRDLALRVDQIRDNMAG

Canis familiaris [13] = test: Volume of distribution at steady state in dog at 1 mg/kg, iv; type: ADME, organism-based, Canis lupus familiaris; parameters: dose 1 mg/kg, route intravenous; settings: in vivo
[14] = Clearance in mouse at 3 mg/kg, iv; type: ADME, organism-based; parameters: dose 3 mg/kg, route intravenous; settings: in vivo
[15] = AUC (0-infinity) in rat at 10 mg/kg, iv; type: ADME, organism-based; parameters: time infinity, dose 10 mg/kg, route intravenous; settings: plasma
Canis familiaris [16] = test: AUC (0-infinity) in dog at 10 mg/kg, po; type: ADME, organism-based, Canis lupus familiaris, Plasma; parameters: time infinity, dose 10 mg/kg, route oral; settings: in vivo
[17] = target: Vascular endothelial growth factor receptor 2 (Homo sapiens, UniProt P35968); test: Inhibition of VEGFR2
Chain of Vascular endothelial growth factor receptor 2 (P35968 whole entry): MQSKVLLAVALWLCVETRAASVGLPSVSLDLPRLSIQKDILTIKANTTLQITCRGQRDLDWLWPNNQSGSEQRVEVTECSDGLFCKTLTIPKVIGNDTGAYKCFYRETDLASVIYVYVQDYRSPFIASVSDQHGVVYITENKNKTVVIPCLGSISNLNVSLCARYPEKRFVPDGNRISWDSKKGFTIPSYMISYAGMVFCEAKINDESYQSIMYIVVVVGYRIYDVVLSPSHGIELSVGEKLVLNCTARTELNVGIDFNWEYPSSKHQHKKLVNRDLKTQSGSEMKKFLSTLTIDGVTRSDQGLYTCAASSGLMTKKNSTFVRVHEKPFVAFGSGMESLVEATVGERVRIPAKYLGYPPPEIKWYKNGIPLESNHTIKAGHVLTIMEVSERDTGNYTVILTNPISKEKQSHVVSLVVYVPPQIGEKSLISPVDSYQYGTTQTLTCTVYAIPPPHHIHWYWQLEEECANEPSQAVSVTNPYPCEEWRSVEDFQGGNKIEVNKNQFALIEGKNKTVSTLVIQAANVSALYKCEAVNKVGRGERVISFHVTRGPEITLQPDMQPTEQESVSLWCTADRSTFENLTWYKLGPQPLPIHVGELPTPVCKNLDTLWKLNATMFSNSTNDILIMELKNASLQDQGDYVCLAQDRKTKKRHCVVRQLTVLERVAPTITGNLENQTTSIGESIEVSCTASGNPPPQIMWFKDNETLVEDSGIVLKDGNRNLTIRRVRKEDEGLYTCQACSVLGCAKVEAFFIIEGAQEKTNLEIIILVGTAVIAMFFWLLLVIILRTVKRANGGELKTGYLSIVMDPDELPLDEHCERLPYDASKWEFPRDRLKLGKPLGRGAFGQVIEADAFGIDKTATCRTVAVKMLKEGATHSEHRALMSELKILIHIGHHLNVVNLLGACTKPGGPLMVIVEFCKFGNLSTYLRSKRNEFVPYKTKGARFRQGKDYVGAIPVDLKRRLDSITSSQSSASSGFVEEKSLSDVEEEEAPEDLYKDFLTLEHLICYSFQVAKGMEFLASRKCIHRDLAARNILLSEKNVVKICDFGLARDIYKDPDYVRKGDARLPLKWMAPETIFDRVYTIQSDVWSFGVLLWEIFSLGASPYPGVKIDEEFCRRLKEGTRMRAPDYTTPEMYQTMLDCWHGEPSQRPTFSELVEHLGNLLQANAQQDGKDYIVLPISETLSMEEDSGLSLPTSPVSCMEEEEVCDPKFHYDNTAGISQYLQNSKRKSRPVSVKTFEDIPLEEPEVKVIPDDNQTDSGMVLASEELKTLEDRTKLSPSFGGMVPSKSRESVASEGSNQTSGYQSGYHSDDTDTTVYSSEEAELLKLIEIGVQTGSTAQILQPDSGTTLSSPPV

A2780 [18] = test: Antitumor activity against human A2780 cells xenografted in nu/nu mouse assessed as tumor growth inhibition at 67.5 mg/kg, po bid for 3 days relative to untreated control; type: functional; settings: A2780, 72 h, read-out: TGI
[19] = Solubility in 20 mM acetate buffer at pH 4.0; type: physicochemical
[20] = target: T3, Interleukin-1 receptor-associated kinase 4 (Homo sapiens, UniProt Q9NWZ3); test: Inhibition of IRK4
T3 sequence (Q9NWZ3 whole entry): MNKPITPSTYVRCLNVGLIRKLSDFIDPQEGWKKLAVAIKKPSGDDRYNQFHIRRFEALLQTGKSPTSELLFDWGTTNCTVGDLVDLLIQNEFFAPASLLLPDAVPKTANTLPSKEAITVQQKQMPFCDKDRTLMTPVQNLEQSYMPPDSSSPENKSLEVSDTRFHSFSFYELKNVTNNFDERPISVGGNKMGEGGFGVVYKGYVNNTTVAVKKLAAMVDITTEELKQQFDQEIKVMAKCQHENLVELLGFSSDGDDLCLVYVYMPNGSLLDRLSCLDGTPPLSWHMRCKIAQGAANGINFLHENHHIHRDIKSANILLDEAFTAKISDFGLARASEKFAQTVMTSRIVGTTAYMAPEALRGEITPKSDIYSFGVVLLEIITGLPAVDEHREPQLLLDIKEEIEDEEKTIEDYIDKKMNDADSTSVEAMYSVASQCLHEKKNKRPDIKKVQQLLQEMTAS

[21] = Oral bioavailability in rat at 30 mg/kg, po; type: ADME, organism-based; settings: in vivo
[22] = Volume of distribution at steady state in rat at 10 mg/kg, iv; type: ADME, organism-based; parameters: dose 10 mg/kg, route intravenous; settings: in vivo, read-out: Vdss
A2780 [23] = test: Antitumor activity against human A2780 cells xenografted in nu/nu mouse assessed as tumor growth inhibition administered twice daily for 3 or 5 days; type: functional, cell-based
[24] = AUC (0-infinity) in mouse at 3 mg/kg, iv; type: ADME, organism-based; parameters: time infinity, dose 3 mg/kg, route intravenous; settings: plasma
A2780 [25] = test: Antitumor activity against human A2780 cells xenografted in nu/nu mouse assessed as tumor growth inhibition at 45 mg/kg, po bid for 5 days relative to untreated control; type: functional; settings: A2780, 120 h, read-out: TGI
[26] = Clearance in rat at 10 mg/kg, iv; type: ADME, organism-based; parameters: dose 10 mg/kg, route intravenous; settings: in vivo
[27] = Oral bioavailability in mouse at 50 mg/kg, po; type: ADME, organism-based; settings: in vivo
A2780 [28] = test: Antitumor activity against human A2780 cells assessed as inhibition of cell survival; type: functional, cell-based
Canis familiaris [29] = test: Oral bioavailability in dog at 10 mg/kg, po; type: ADME, organism-based, Canis lupus familiaris; settings: in vivo
Canis familiaris [30] = test: Half life in dog at 1 mg/kg, iv; type: ADME, organism-based, Canis lupus familiaris; parameters: dose 1 mg/kg, route intravenous; settings: in vivo
A2780 [31] = test: Antitumor activity against human A2780 cells xenografted in nu/nu mouse assessed as tumor growth inhibition at 90 mg/kg, po bid for 3 days relative to untreated control; type: functional; settings: A2780, 72 h, read-out: TGI
[32] = target: Ribosomal protein S6 kinase alpha-3 (Homo sapiens, UniProt P51812); test: Inhibition of RSK2
Chain of Ribosomal protein S6 kinase alpha-3 (P51812 whole entry): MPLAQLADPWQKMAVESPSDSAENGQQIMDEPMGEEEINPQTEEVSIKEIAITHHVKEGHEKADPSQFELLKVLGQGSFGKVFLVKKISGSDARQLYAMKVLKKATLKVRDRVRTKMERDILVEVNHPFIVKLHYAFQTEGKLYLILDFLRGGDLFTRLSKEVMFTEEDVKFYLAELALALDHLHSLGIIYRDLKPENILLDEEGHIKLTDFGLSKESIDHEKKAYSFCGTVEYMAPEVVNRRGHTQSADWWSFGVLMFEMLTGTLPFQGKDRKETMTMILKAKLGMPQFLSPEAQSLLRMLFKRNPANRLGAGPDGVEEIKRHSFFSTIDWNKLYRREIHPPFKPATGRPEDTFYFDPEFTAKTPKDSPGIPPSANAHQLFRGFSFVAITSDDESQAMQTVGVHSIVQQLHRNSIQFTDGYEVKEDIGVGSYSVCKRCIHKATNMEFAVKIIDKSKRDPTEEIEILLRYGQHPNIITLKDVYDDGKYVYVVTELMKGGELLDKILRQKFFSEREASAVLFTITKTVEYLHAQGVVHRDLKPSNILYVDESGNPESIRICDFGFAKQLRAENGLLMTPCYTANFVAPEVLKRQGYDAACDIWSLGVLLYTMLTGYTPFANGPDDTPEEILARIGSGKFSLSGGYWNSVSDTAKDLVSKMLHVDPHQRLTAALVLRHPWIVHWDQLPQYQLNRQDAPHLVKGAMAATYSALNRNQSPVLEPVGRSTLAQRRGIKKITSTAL

[33] = Volume of distribution at steady state in mouse at 3 mg/kg, iv; type: ADME, organism-based; parameters: dose 3 mg/kg, route intravenous; settings: in vivo, read-out: Vdss

SMILES: CCOCC(c1cc(Nc2nc(C)cn3c(-c4cn[nH]c4)cnc23)sn1)N1CCOCC1 (racemic)
IC50 (Aurora kinase A): ≤ 0.004 µM | EC50 [1]: 0.281 µM | IC50 (Aurora kinase B): ≤ 0.013 µM

SMILES: CC(=O)N1CCN(Cc2cc(Nc3nc(C)cn4c(-c5cn[nH]c5)cnc34)sn2)CC1
IC50 (Aurora kinase A): ≤ 0.004 µM | EC50 [1]: > 1 µM | IC50 (Aurora kinase B): ≤ 0.013 µM

SMILES: Cc1cn2c(-c3cn[nH]c3)cnc2c(Nc2cc(CN3C[C@H]4CC[C@@H](C3)O4)ns2)n1
IC50 (Aurora kinase A): ≤ 0.004 µM | AUC(0-t) at 6 h [2]: 0.4 µM·h | EC50 [1]: 0.267 µM | IC50 (Aurora kinase B): ≤ 0.013 µM

SMILES: CSc1cn2c(-c3cn[nH]c3)cnc2c(Nc2cc(C)ns2)n1
EC50 [1]: 0.6 µM | IC50 (Aurora kinase B): ≤ 0.013 µM

SMILES: Cc1cn2c(-c3cn[nH]c3)cnc2c(Nc2cc(CN3CCN(C)C(=O)C3)ns2)n1
IC50 (Aurora kinase A): ≤ 0.004 µM | EC50 [1]: > 1 µM | IC50 (Aurora kinase B): ≤ 0.013 µM

SMILES: Cc1cn2c(-c3cn[nH]c3)cnc2c(Nc2cc(CN3CCOCC3(C)C)ns2)n1
IC50 (Aurora kinase A): ≤ 0.004 µM | AUC(0-t) at 6 h [2]: 3.3 µM·h | EC50 [1]: 0.117 µM | IC50 [3]: 0.384 µM | IC50 (Aurora kinase B): ≤ 0.013 µM

SMILES: Cc1cn2c(-c3cn[nH]c3)cnc2c(Nc2cc(CN3CCN(C)CC3)ns2)n1
IC50 (Aurora kinase A): ≤ 0.004 µM | EC50 [1]: 0.412 µM | IC50 (Aurora kinase B): ≤ 0.013 µM

The next compounds have a lower EC50 [1] than those just listed; values first:

IC50 (Aurora kinase A): ≤ 0.004 µM | AUC(0-t) at 6 h [2]: 8 µM·h | EC50 [1]: 0.055 µM | IC50 (Aurora kinase B): ≤ 0.013 µM
SMILES: Cc1cn2c(-c3cn[nH]c3)cnc2c(Nc2cc(C(C)N3C[C@@H](C)O[C@@H](C)C3)ns2)n1 (mixture of isomers)

IC50 (Aurora kinase A): ≤ 0.004 µM | AUC(0-t) at 6 h [2]: 0.5 µM·h | EC50 [1]: 0.014 µM | IC50 [3]: 0.045 µM | IC50 (Aurora kinase B): ≤ 0.013 µM
SMILES: Cc1cn2c(-c3cn[nH]c3)cnc2c(Nc2cc(CN3CCCCC3(C)C)ns2)n1

IC50 (Aurora kinase A): ≤ 0.004 µM | AUC(0-t) at 6 h [2]: 0.5 µM·h | EC50 [1]: 0.049 µM | IC50 (Aurora kinase B): ≤ 0.013 µM
SMILES: CCC(c1cc(Nc2nc(C)cn3c(-c4cn[nH]c4)cnc23)sn1)N1CCOCC1 (racemic)

IC50 (Aurora kinase A): ≤ 0.004 µM | AUC(0-t) at 6 h [2]: 0.4 µM·h | EC50 [1]: 0.104 µM | IC50 (Aurora kinase B): ≤ 0.013 µM
SMILES: Cc1cn2c(-c3cn[nH]c3)cnc2c(Nc2cc(C(c3ccccn3)N3CCOCC3)ns2)n1 (racemic)

AUC (Canis familiaris [4]): 3.4 µM·h | IC50 [5]: 0.14 µM | AUC(0-inf) [6]: 57.7 µM·h | half-life [7]: 5 h | IC50 (Aurora kinase A): ≤ 0.004 µM | half-life [8]: 3.9 h | EC50 (A2780 [9]): 0.019 µM | AUC(0-inf) [10]: 86.4 µM·h | IC50 [11]: > 0.01 µM | IC50 [12]: > 0.01 µM | Vdss (Canis familiaris [13]): 12 L/kg | clearance [14]: 1.2 L/h/kg | AUC(0-inf) [15]: 38.8 µM·h | AUC (Canis familiaris [16]): 2.2 µM·h | IC50 [17]: 0.71 µM | AUC(0-t) at 6 h [2]: 4.6 µM·h | solubility [19]: 4.66 mg/mL (≈ 10.6 mM) | IC50 [20]: 1.8 µM | bioavailability [21]: 72% | Vd [22]: 1.6 L/kg | AUC(0-inf) [24]: 5.6 µM·h | clearance [26]: 0.6 L/h/kg | EC50 [1]: 0.028 µM | bioavailability [27]: 92% | IC50 [3]: 0.51 µM | F (Canis familiaris [29]): 50% | t1/2 (Canis familiaris [30]): 4.8 h | IC50 (Aurora kinase B): ≤ 0.013 µM | IC50 [32]: 0.33 µM | Vd [33]: 1.5 L/kg
SMILES: Cc1cn2c(-c3cn[nH]c3)cnc2c(Nc2cc([C@@H](C)N3C[C@@H](C)O[C@@H](C)C3)ns2)n1
inhibition in vivo at 67.5 mg/kg (A2780 [18]): 67% | TGI (A2780 [23]): Dose-dependent effect | inhibition in vivo at 45 mg/kg (A2780 [25]): 41% | EC50 (A2780 [28]): 0.02 µM | inhibition in vivo at 90 mg/kg (A2780 [31]): 79%

IC50 (Aurora kinase A): ≤ 0.004 µM | AUC(0-t) at 6 h [2]: 7.3 µM·h | EC50 [1]: 0.082 µM | IC50 (Aurora kinase B): ≤ 0.013 µM
SMILES: Cc1cn2c(-c3cn[nH]c3)cnc2c(Nc2cc(CN3C[C@@H](C)O[C@@H](C)C3)ns2)n1

IC50 (Aurora kinase A): ≤ 0.004 µM | AUC(0-t) at 6 h [2]: 1.1 µM·h | EC50 [1]: 0.074 µM | IC50 (Aurora kinase B): ≤ 0.013 µM
SMILES: Cc1cn2c(-c3cn[nH]c3)cnc2c(Nc2cc(C(C)N3CCOCC3)ns2)n1 (racemic)

From ChEMBL document CHEMBL1268847, “Discovery of orally bioavailable imidazo[1,2-a]pyrazine-based Aurora kinase inhibitors” (Bioorg Med Chem Lett, 2010)
